Reference: patent publication US8012944B2, “Method for treating cancer using IAP antisense oligomer and chemotherapeutic agent” (Pharmascience Inc., priority 2003, dated 2011)
Oligonucleotides are written 5' to 3', each unit as a sugar letter and its base; * is a phosphorothioate linkage, no mark a phosphodiester; rarer units and linkages stand in square brackets, end groups in braces. Plain capitals give the bases only. d = 2'-deoxy (DNA); m = 2'-O-methyl

Experiments:
XIAP mRNA [1] = assay: XIAP mRNA knock-down in H460 cells (real-time RT-PCR / TaqMan); assay type: cell-based, human
Experimental: RNA was extracted from cells lysed in RLT buffer (QIAGEN, Valencia, Calif.), and purified using QIAGEN RNeasy columns/kits. Real-time quantitative PCR was performed on a Perkin-Elmer ABI 7700 Prism PCR machine. RNA was reverse transcribed and amplified according to the TaqMan Universal PCR Master Mix protocol of PE Biosystems, using primers and probes designed to specifically recognize XIAP, HIAP1, survivin, or GAPDH. For human survivin, the forward primer was 5′-[…]-3′ (SEQ ID NO: 263), the reverse primer was 5′-GAAAGGAAAGCGCAACCG-3′ (SEQ ID NO: 264), and the probe was 5′-(FAM)[…](TAMRA)-3′ (SEQ ID NO: 265). For human HIAP1, the forward primer was 5′-[…]-3′ (SEQ ID NO: 266), the reverse primer was 5′-[…]-3′ (SEQ ID NO: 267), and the probe was 5′-(FAM)[…](TAMRA)-3′ (SEQ ID NO: 268). For human XIAP, the forward primer was 5′-[…]-3′ (SEQ ID NO: 269), the reverse primer was 5′-[…]-3′ (SEQ ID NO: 270), and the probe was 5′-(FAM)[…](TAMRA)-3′ (SEQ ID NO: 271). For human GAPDH, the forward primer was 5′-GAAGGTGAAGGTCGGAGTC-3′ (SEQ ID NO: 272), the reverse primer was 5′-GAAGATGGTGATGGGATTC-3′ (SEQ ID NO: 273), and the probe was 5′-(JOE)[…](TAMRA)-3′ (SEQ ID NO: 274). FAM is 6-carboxyfluoroscein, JOE is 6-carboxy-4,5-dichloro-2,7-dimethoxyfluoroscein, and TAMRA is 6-carboxy-N,N,N′,N′-tetramethylrhodamine. FAM and JOE are 5′ reporter dyes, while TAMRA is a 3′ quencher dye.
Relative quantification of gene expression was performed as described in the PE Biosystems manual using GAPDH as an internal standard. The comparative Ct (cycle threshold) method was used for relative quantitation of IAP mRNA levels compared to GAPDH mRNA levels. Briefly, real-time fluorescence measurements were taken at each PCR cycle and the threshold cycle (Ct) value for each sample was calculated by determining the point at which fluorescence exceeded a threshold limit of 30 times the baseline standard deviation. The average baseline value and the baseline SD are calculated starting from the third cycle baseline value and stopping at the baseline value three cycles before the signal starts to exponentially rise. The PCR primers and/or probes for the specific IAPs were designed to span at least one exon-intron boundary separated by 1 kb or more of genomic DNA, to reduce the possibility of amplifying and detecting genomic DNA contamination. The specificity of the signal, and possible contamination from DNA, were verified by treating some RNA samples with either DNase or RNase, prior to performing the reverse transcription and PCR reaction steps.
A portion of the 96 nucleobase oligomers depicted in Table 2 were rescreened for their ability to knock-down XIAP mRNA in NCI-H460 cells at […] post-transfection.
One day prior to transfection, H460 cells were plated in 6- or 96-well tissue culture plates. Phosphorothioate antisense oligonucleotides were delivered into cells with Lipofectamine 2000 (Life Technologies) in the form of liposome-oligonucleotide complexes. Following a 4.5 or 6 h transfection, the transfection medium was replaced with RPMI medium containing 10% FBS, and the cells incubated for another 24 or 48 h.
Total RNA from H460 cells treated with liposome-oligonucleotide complexes for 6 hours was immediately isolated using RNeasy mini spin columns and DNase treatment (QIAGEN, Valencia, Calif.). Specific XIAP mRNA was measured using a real-time quantitative RT-PCR method. […]

XIAP mRNA [2] = assay: as above; assay type: cell-based, human; conditions: 2 × 2 MBO; NCI-H460 cells, 9 hours post-transfection; relative level (mock control 1.01)

Row | Sequence | XIAP down-regulation H460 RNA (XIAP mRNA [1]) [%] | XIAP RNA (XIAP mRNA [2])
1 | GAGTAAAAAAAATGGATAA (mG*mAdGdTdAdAdAdAdAdAdAdAdTdGdGdAdTmA*mA; antisense) [Code G11] | 33 | 0.67
2 | AGTATGAAATATTTCTGAT (antisense; sugars from the 5' end m2 d15 m2, backbone and T or U not given here; further chemistry not fully specified) [Code E1] | 69 | 0.31
3 | AAGTAAAGATCCGTGCTTC (antisense; sugars from the 5' end m2 d15 m2, backbone, methylation of C and T or U not given here; further chemistry not fully specified) [Code H7] | 63 | 0.49
4 | ATGATCTCTGCTTCCCAGA (antisense; sugars from the 5' end m2 d15 m2, backbone and T or U not given here; further chemistry not fully specified) [Code E5] | 46 | 0.52
5 | AATGTGAAACACAAGCAAC (antisense AANGNGAAACACAAGCAAC; sugars from the 5' end m2 d15 m2, linkages s1 o16 s1 (s phosphorothioate, o phosphodiester), the base at N not given here) [Code C3] | 43 | 0.55
6 | ACATTATATTAGGAAATCC (mA*mCdAdTdTdAdTdAdTdTdAdGdGdAdAdAdTmC*mC; antisense) [Code D3] | 30 | 0.68
7 | TCTGCCATGGATGGATTTC (antisense; sugars from the 5' end m2 d15 m2, backbone, methylation of C and T or U not given here; further chemistry not fully specified) [Code G7] | 41 | 0.66
8 | TGTTCTAACAGATATTTGC (antisense; sugars from the 5' end m2 d15 m2, backbone, methylation of C and T or U not given here; further chemistry not fully specified) [Code G8] | 49 | 0.64
9 | ATTCAAGGGATCAAAGTTG (antisense; sugars from the 5' end m2 d15 m2, backbone and T or U not given here; further chemistry not fully specified) [Code A2] | 58 | 0.42
10 | TTTCTCAGTAGTTCTTACC (antisense; sugars from the 5' end m2 d15 m2, backbone, methylation of C and T or U not given here; further chemistry not fully specified) [Code D9] | 39 | 0.73
11 | AAGCTTCTCCTCTTGCAGG (antisense; sugars from the 5' end m2 d15 m2, linkages s1 o16 s1 (s phosphorothioate, o phosphodiester), methylation of C not given here) [Code F10] | 51 | 0.64
12 | TATATATTCTTGTCCCTTC (antisense; sugars from the 5' end m2 d15 m2, backbone, methylation of C and T or U not given here; further chemistry not fully specified) [Code A9] | 62 | 0.46
13 | GTTAGTGATGGTGTTTTGT (antisense; sugars from the 5' end m2 d15 m2, backbone and T or U not given here; further chemistry not fully specified) [Code E9] | 43 | 0.69
14 | TTAGCAAAATATGTTTTAA (antisense; sugars from the 5' end m2 d15 m2, backbone and T or U not given here; further chemistry not fully specified) [Code G1] | 33 | 0.67
15 | ATTCGCACAAGTACGTGTT (antisense; sugars from the 5' end m2 d15 m2, backbone, methylation of C and T or U not given here; further chemistry not fully specified) [Code D12] | 77 | 0.23
16 | GCGGCCCAAAACAAAGAAG (antisense CCGGCCCAAAACAAAGAAG; sugars from the 5' end m2 d15 m2, linkages s1 o16 s1 (s phosphorothioate, o phosphodiester), methylation of C not given here) [Code C7] | 72 | 0.27
17 | CTTGAAAGTAATGACTGTG (antisense; sugars from the 5' end m2 d15 m2, backbone, methylation of C and T or U not given here; further chemistry not fully specified) [Code C11] | 52 | 0.44
18 | TAGATCTGGAACCAGAACC (antisense; sugars from the 5' end m2 d15 m2, backbone, methylation of C and T or U not given here; further chemistry not fully specified) [Code C10] | 53 | 0.56
19 | TTCAGTTTTCCACCACAAC (antisense; sugars from the 5' end m2 d15 m2, backbone, methylation of C and T or U not given here; further chemistry not fully specified) [Code H6] | 68 | 0.31
20 | TCGGGTATATGGTGTCTGA (antisense; chemistry not fully specified) [Code A6] | 72 | 0.27
21 | AGCACATTGTTTACAAGTG (antisense; sugars from the 5' end m2 d15 m2, backbone, methylation of C and T or U not given here; further chemistry not fully specified) [Code A11] | 68 | 0.36
22 | CTAAATACTAGAGTTCGAC (antisense; sugars from the 5' end m2 d15 m2, backbone and T or U not given here; further chemistry not fully specified) [Code G2] | 55 | 0.44
23 | AGATGGTATCATCAATTCT (antisense; sugars from the 5' end m2 d15 m2, backbone, methylation of C and T or U not given here; further chemistry not fully specified) [Code F9] | 19 | 0.97
24 | GCAGAATAAAACTAATAAT (antisense; sugars from the 5' end m2 d15 m2, backbone and T or U not given here; further chemistry not fully specified) [Code D2] | 39 | 0.66
25 | GTCAAATCATTAATTAGGA (antisense; sugars from the 5' end m2 d15 m2, backbone and T or U not given here; further chemistry not fully specified) [Code B2] | 55 | 0.45
26 | TTGTAGACTGCGTGGCACT (antisense; sugars from the 5' end m2 d15 m2, backbone and T or U not given here; further chemistry not fully specified) [Code B5] | 61 | 0.38
